Results from ChEMBL document CHEMBL6134821, “Design, synthesis, and biological evaluation of novel BTK-targeting proteolysis targeting chimeras (PROTACs) with enhanced pharmacokinetic properties” (Eur J Med Chem, 2025).
Calls of active or inactive are those of the source. The calls are words filed in the database; no cut-off is given here.

Experiments:
[1] = biological target: T1, Protein cereblon/Tyrosine-protein kinase BTK (Homo sapiens, UniProt Q06187+Q96SW2); assay: PROTAC activity at CRBN/BTK in human JeKo-1 cells assessed as BTK degradation at 10 nM incubated for 24 hrs by Western blot analysis relative to control; type: cell-based
Target sequence in this assay (Q06187 2-659 limits assumed): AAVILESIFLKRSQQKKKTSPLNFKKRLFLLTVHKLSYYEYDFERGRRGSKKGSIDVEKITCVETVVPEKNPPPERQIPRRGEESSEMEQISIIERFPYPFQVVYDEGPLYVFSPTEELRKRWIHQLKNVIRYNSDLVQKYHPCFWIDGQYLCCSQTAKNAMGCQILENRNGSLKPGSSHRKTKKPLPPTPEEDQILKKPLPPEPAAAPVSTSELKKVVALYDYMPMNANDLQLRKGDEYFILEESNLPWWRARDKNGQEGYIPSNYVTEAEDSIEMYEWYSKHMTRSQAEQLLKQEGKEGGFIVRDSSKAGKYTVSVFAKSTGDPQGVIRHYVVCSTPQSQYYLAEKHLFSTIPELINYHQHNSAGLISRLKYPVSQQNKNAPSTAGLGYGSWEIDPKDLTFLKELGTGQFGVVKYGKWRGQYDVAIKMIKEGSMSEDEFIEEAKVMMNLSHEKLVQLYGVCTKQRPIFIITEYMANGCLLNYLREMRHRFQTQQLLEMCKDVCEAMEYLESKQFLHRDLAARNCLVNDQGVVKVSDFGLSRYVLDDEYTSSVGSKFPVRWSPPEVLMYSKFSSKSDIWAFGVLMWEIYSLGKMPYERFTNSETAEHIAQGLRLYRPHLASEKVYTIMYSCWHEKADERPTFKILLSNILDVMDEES
Target sequence in this assay (Q96SW2 whole entry partner): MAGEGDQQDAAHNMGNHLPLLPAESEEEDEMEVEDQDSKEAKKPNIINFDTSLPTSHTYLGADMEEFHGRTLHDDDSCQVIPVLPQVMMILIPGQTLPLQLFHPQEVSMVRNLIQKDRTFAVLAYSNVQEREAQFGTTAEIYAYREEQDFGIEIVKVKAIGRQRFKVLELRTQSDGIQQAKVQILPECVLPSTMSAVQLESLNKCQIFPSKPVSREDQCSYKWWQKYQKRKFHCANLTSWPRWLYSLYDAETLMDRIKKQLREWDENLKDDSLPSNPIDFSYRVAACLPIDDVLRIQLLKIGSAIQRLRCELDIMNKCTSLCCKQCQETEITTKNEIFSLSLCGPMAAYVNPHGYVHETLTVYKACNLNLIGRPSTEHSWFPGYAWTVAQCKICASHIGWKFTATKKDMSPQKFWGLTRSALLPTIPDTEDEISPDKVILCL

[2] = biological target: T1, Protein cereblon/Tyrosine-protein kinase BTK; assay: PROTAC activity at CRBN/BTK in human JeKo-1 cells assessed as BTK degradation at 30 nM incubated for 24 hrs by Western blot analysis relative to control; type: cell-based
Target sequence in this assay (Q06187 2-659 limits assumed): as the sequence (Q06187 2-659 limits assumed) above
Target sequence in this assay (Q96SW2 whole entry partner): as the sequence (Q96SW2 whole entry partner) above

[3] = biological target: T1, Protein cereblon/Tyrosine-protein kinase BTK; assay: PROTAC activity at CRBN/BTK in human JeKo-1 cells assessed as BTK degradation at 100 nM incubated for 24 hrs by Western blot analysis relative to control; type: cell-based
Target sequence in this assay (Q06187 2-659 limits assumed): as the sequence (Q06187 2-659 limits assumed) above
Target sequence in this assay (Q96SW2 whole entry partner): as the sequence (Q96SW2 whole entry partner) above

[4] = Cytotoxicity against human TMD8 cells harboring wild-type BTK assessed as inhibition of cell viability incubated for 5 days by CCK8 assay; type: functional, cell-based; settings: TMD8, 120 h
[5] = Cytotoxicity against human TMD8 cells harboring BTK C481S mutant assessed as inhibition of cell viability incubated for 5 days by CCK8 assay; type: functional, cell-based; settings: TMD8, 120 h
[6] = biological target: T1, Protein cereblon/Tyrosine-protein kinase BTK; assay: PROTAC activity at CRBN/BTK in human JeKo-1 cells assessed as BTK degradation incubated for 24 hrs by Western blot analysis; type: cell-based
Target sequence in this assay (Q06187 whole entry): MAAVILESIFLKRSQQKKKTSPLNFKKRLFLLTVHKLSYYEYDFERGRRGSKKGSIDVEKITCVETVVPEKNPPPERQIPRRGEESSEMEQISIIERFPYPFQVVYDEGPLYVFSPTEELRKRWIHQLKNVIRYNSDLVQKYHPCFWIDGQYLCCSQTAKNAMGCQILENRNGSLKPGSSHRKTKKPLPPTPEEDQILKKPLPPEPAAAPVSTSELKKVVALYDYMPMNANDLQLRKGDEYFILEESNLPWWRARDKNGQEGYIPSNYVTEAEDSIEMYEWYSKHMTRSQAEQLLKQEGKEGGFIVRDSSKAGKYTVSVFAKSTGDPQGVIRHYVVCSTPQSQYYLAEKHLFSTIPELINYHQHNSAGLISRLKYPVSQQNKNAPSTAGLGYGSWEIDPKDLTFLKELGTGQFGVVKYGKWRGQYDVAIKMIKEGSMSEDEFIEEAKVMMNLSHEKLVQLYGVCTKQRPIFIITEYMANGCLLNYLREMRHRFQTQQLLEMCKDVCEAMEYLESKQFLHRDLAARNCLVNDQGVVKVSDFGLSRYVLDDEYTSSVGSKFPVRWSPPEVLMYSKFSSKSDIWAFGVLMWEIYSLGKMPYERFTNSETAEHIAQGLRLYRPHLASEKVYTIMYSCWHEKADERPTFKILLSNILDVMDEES
Target sequence in this assay (Q96SW2 whole entry): as the sequence (Q96SW2 whole entry partner) above

[7] = Microsomal stability in human liver microsomes assessed as half life measured up to 60 mins in presence of NADPH by LC-MS/MS analysis; type: ADME, Microsome
[8] = Microsomal stability in human liver microsomes assessed as intrinsic clearance in microsomes measured up to 60 mins in presence of NADPH by LC-MS/MS analysis; type: ADME, Microsome; settings: read-out: CLH
[9] = Microsomal stability in human liver microsomes assessed as intrinsic clearance in liver measured up to 60 mins in presence of NADPH by LC-MS/MS analysis; type: ADME, Microsome; settings: read-out: CLH
[10] = Microsomal stability in human liver microsomes assessed as compound remaining measured up to 60 mins in presence of NADPH by LC-MS/MS analysis; type: ADME, Microsome; settings: read-out: Stability
[11] = Microsomal stability in human liver microsomes assessed as compound remaining measured up to 60 mins by LC-MS/MS analysis; type: ADME, Microsome; settings: read-out: Stability
[12] = biological target: T1, Protein cereblon/Tyrosine-protein kinase BTK; assay: PROTAC activity at CRBN/BTK in human JeKo-1 cells assessed as BTK degradation up to 100 nM incubated for 24 hrs by Western blot analysis; type: cell-based
Target sequence in this assay (Q06187 2-659 limits assumed): as the sequence (Q06187 2-659 limits assumed) above
Target sequence in this assay (Q96SW2 whole entry partner): as the sequence (Q96SW2 whole entry partner) above

| Activity [1] [%] | Activity [2] [%] | Activity [3] [%] | Structure (SMILES) | other results |
| --- | --- | --- | --- | --- |
| 45 | 62 | 77 | O=C1CCC(c2cccc(N3CCC(CCN4CCC(CC(=O)N[C@H]5CC[C@@H](Nc6ncnc7[nH]cc(C(=O)c8ccc(Oc9ccccc9)cc8Cl)c67)CC5)CC4)CC3)c2)C(=O)N1 (stereo partly drawn) | – |
| 65 | 53 | 47 | O=C1CCC(N2Cc3cc(N4CCC(CCN5CCC(CC(=O)N6CCN(c7ncnc8[nH]cc(C(=O)c9ccc(Oc%10ccccc%10)cc9Cl)c78)CC6)CC5)CC4)c(F)cc3C2=O)C(=O)N1 (stereo not drawn) | – |
| 50 | 51 | 74 | O=C1CCC(c2ccc(N3CCC(CN4CCC(CC(=O)N[C@H]5CC[C@@H](Nc6ncnc7[nH]cc(C(=O)c8ccc(Oc9ccccc9)cc8)c67)CC5)CC4)CC3)cc2)C(=O)N1 (stereo partly drawn) | – |
| 4 | 11 | 6 | O=C1CCC(c2ccc(N3CCC(CN4CCC(CC(=O)N[C@H]5CC[C@@H](Nc6ncnc7[nH]cc(C(=O)c8ccc(Oc9ccccc9)cc8)c67)CC5)CC4)C3)cc2)C(=O)N1 (stereo partly drawn) | – |
| 15 | 36 | 53 | O=C1CCC(c2ccc(N3CCC(CCN4CCN(CC(=O)N[C@H]5CC[C@@H](Nc6ncnc7[nH]cc(C(=O)c8ccc(Oc9ccccc9)cc8)c67)CC5)CC4)CC3)cc2)C(=O)N1 (stereo partly drawn) | – |
| – | – | – | NC(=O)c1ncc(N2CCCCC2)nc1Nc1ccc(C2CCN(C[C@@H]3CCN(c4ccc5c(c4)C(=O)N(C4CCC(=O)NC4=O)C5=O)C3)CC2)cc1 (stereo partly drawn) | IC50 [4]: 8.8 nM; IC50 [5]: 18 nM |
| – | 9 | 35 | O=C1CCN(c2ccc(C(=O)N3CCC(CCN4CCC(CC(=O)N[C@H]5CC[C@@H](Nc6ncnc7[nH]cc(C(=O)c8ccc(Oc9ccccc9)cc8Cl)c67)CC5)CC4)CC3)cc2)C(=O)N1 | – |
| 64 | 88 | 91 | O=C1CCC(n2ncc(N3CCC(CCN4CCC(CC(=O)N[C@H]5CC[C@@H](Nc6ncnc7[nH]cc(C(=O)c8ccc(Oc9ccccc9)cc8Cl)c67)CC5)CC4)CC3)c(Cl)c2=O)C(=O)N1 (stereo partly drawn) | – |
| – | 15 | 39 | O=C1CCC(c2ccc(N3CCC(CCN4CCC(CCN[C@H]5CC[C@@H](Nc6ncnc7[nH]cc(C(=O)c8ccc(Oc9ccccc9)cc8)c67)CC5)CC4)CC3)cc2)C(=O)N1 (stereo partly drawn) | – |
| 56 | 76 | 88 | O=C1CCC(N2Cc3cc(N4CCC(CCN5CCC(CC(=O)NC6CCN(c7ncnc8[nH]cc(C(=O)c9ccc(Oc%10ccccc%10)cc9Cl)c78)CC6)CC5)CC4)c(F)cc3C2=O)C(=O)N1 (stereo not drawn) | – |
| 18 | 32 | 36 | O=C1CCC(N2Cc3cc(N4CCC(CCN5CCC(CC(=O)N[C@H]6CC[C@@H](Nc7ncnc8[nH]cc(C(=O)c9ccccc9Cl)c78)CC6)CC5)CC4)c(F)cc3C2=O)C(=O)N1 (stereo partly drawn) | – |
| 80 | 90 | 94 | O=C1CCC(N2Cc3cc(N4CCC(CCN5CCC(CC(=O)N6CCC(Nc7ncnc8[nH]cc(C(=O)c9ccc(Oc%10ccccc%10)cc9Cl)c78)CC6)CC5)CC4)c(F)cc3C2=O)C(=O)N1 (stereo not drawn) | – |
| 79 | 85 | 89 | O=C1CCC(c2ccc(N3CCC(CCN4CCC(CC(=O)N[C@H]5CC[C@@H](Nc6ncnc7[nH]cc(C(=O)c8ccc(Oc9ccccc9)cc8Cl)c67)CC5)CC4)CC3)cc2)C(=O)N1 (stereo partly drawn) | – |
| 83 | 92 | 89 | O=C1CCC(N2Cc3cc(N4CCC(CCN5CCC(CC(=O)N[C@H]6CC[C@@H](Nc7ncnc8[nH]cc(C(=O)c9ccc(Oc%10ccccc%10)cc9Cl)c78)CC6)CC5)CC4)c(F)cc3C2=O)C(=O)N1 (stereo partly drawn) | IC50 [4]: 23.9 nM; IC50 [5]: 27.4 nM |
| – | – | 24 | O=C1CCN(c2cccc(C(=O)N3CCC(CCN4CCC(CC(=O)N[C@H]5CC[C@@H](Nc6ncnc7[nH]cc(C(=O)c8ccc(Oc9ccccc9)cc8Cl)c67)CC5)CC4)CC3)c2)C(=O)N1 | – |
| 26 | 60 | 81 | Cc1ccc(C(=O)N2CCC(CCN3CCC(CC(=O)N[C@H]4CC[C@@H](Nc5ncnc6[nH]cc(C(=O)c7ccc(Oc8ccccc8)cc7Cl)c56)CC4)CC3)CC2)cc1N1CCC(=O)NC1=O | – |
| 4 | 54 | 73 | O=C1CCC(NC(=O)c2ccc(N3CCC(CCN4CCC(CC(=O)N[C@H]5CC[C@@H](Nc6ncnc7[nH]cc(C(=O)c8ccc(Oc9ccccc9)cc8Cl)c67)CC5)CC4)CC3)cn2)C(=O)N1 (stereo partly drawn) | – |
| 84 | 91 | 93 | O=C1CCC(c2ccc(N3CCC(CN4CCC(CC(=O)N[C@H]5CC[C@H](Nc6ncnc7[nH]cc(C(=O)c8ccc(Oc9ccccc9)cc8)c67)C5)CC4)CC3)nc2)C(=O)N1 (stereo partly drawn) | DC50 [6]: 3.1 nM; half-life [7]: 1.13 h; microsomal CLint [8]: 20.3 µL/min/mg; CLint scaled [9]: 18.2 mL/min/kg; remaining at 1 h [10]: 53.9%; remaining at 1 h [11]: 94.6% |
| 69 | 79 | 69 | O=C1CCC(c2ccc(N3CCC(CCN4CCC(CC(=O)N[C@H]5CC[C@@H](Nc6ncnc7[nH]cc(C(=O)c8ccc(Oc9ccccc9)cc8)c67)CC5)CC4)CC3)cc2)C(=O)N1 (stereo partly drawn) | – |
| 11 | 7 | 23 | O=C1CCC(N2Cc3cc(N4CCC(CCN5CCC(CC(=O)N[C@H]6CC[C@@H](Nc7ncnc8[nH]cc(C(=O)c9ccc(F)cc9Cl)c78)CC6)CC5)CC4)c(F)cc3C2=O)C(=O)N1 (stereo partly drawn) | – |
| 41 | 46 | 54 | O=C1CCC(N2Cc3cc(N4CCC(CCN5CCC(CC(=O)N[C@@H]6CCC[C@H](Nc7ncnc8[nH]cc(C(=O)c9ccc(Oc%10ccccc%10)cc9Cl)c78)C6)CC5)CC4)c(F)cc3C2=O)C(=O)N1 (stereo partly drawn) | – |
| 80 | 98 | 98 | O=C1CCC(N2Cc3cc(N4CCC(CCN5CCC(CC(=O)N[C@H]6CC[C@H](Nc7ncnc8[nH]cc(C(=O)c9ccc(Oc%10ccccc%10)cc9Cl)c78)CC6)CC5)CC4)c(F)cc3C2=O)C(=O)N1 (stereo partly drawn) | – |
| – | – | – | O=C(c1ccc(Oc2ccccc2)cc1Cl)c1c[nH]c2ncnc(N[C@@H]3CC[C@@H](CO)OC3)c12 [NEMTABRUTINIB] | IC50 [4]: 335 nM; IC50 [5]: 594 nM |
| – | 4 | 23 | O=C1CCC(c2ccc(N3CC4(CCN(CC(=O)N[C@H]5CC[C@@H](Nc6ncnc7[nH]cc(C(=O)c8ccc(Oc9ccccc9)cc8)c67)CC5)CC4)C3)cc2)C(=O)N1 (stereo partly drawn) | – |
| – | – | – | CN1C(=O)CCC(c2ccc(N3CCC(CCN4CCC(CC(=O)N[C@H]5CC[C@H](Nc6ncnc7[nH]cc(C(=O)c8ccc(Oc9ccccc9)cc8)c67)C5)CC4)CC3)cc2)C1=O (stereo partly drawn) | Activity [12]: inactive |
| 88 | 94 | 98 | O=C1CCC(N2Cc3cc(N4CCC(CCN5CCC(CC(=O)N[C@H]6CC[C@H](Nc7ncnc8[nH]cc(C(=O)c9ccc(Oc%10ccccc%10)cc9Cl)c78)C6)CC5)CC4)c(F)cc3C2=O)C(=O)N1 (stereo partly drawn) | – |
| 69 | 85 | 88 | O=C1CCC(c2ccc(N3CCC(CN4CCC(CC(=O)N[C@H]5CC[C@H](Nc6ncnc7[nH]cc(C(=O)c8ccc(Oc9ccccc9)cc8)c67)C5)CC4)CC3)cc2)C(=O)N1 (stereo partly drawn) | DC50 [6]: 3.6 nM; half-life [7]: 1.47 h; microsomal CLint [8]: 15.8 µL/min/mg; CLint scaled [9]: 14.2 mL/min/kg; remaining at 1 h [10]: 55.6%; remaining at 1 h [11]: 96.8% |
| 77 | 91 | 88 | O=C1CCC(N2Cc3cc(N4CCC(CCN5CCC(CC(=O)N[C@@H]6CC[C@H](Nc7ncnc8[nH]cc(C(=O)c9ccc(Oc%10ccccc%10)cc9Cl)c78)C6)CC5)CC4)c(F)cc3C2=O)C(=O)N1 (stereo partly drawn) | – |
| – | – | – | CN1C(=O)CCC(c2ccc(N3CCC(CCN4CCC(CC(=O)N[C@H]5CC[C@H](Nc6ncnc7[nH]cc(C(=O)c8ccc(Oc9ccccc9)cc8)c67)C5)CC4)CC3)nc2)C1=O (stereo partly drawn) | Activity [12]: inactive |
| 87 | 95 | 96 | O=C1CCC(N2Cc3cc(N4CCC(CCN5CCC(CC(=O)N[C@H]6CC[C@@H](Nc7ncnc8[nH]cc(C(=O)c9ccc(Oc%10ccccc%10)cc9)c78)CC6)CC5)CC4)c(F)cc3C2=O)C(=O)N1 (stereo partly drawn) | – |
